pIC50: −log10 of the molar value.
Legend:
HT-29 = test: Antiproliferative activity against human HT-29 cells assessed as inhibition of cell proliferation measured after 48 hrs by SRB assay; type: functional, cell-based; conditions: HT-29, 48 h
HT-1080 = test: Antiproliferative activity against human HT-1080 cells assessed as inhibition of cell proliferation measured after 48 hrs by SRB assay; type: functional, cell-based; conditions: HT-1080, 48 h
M21 = test: Antiproliferative activity against human M21 cells assessed as inhibition of cell proliferation measured after 48 hrs by SRB assay; type: functional, cell-based; conditions: M21, 48 h
HaCaT = test: Antiproliferative activity against human HaCaT cells assessed as inhibition of cell proliferation measured after 48 hrs by SRB assay; type: cell-based

pIC50 (HT-29)	pIC50 (HT-1080)	SMILES	pIC50 (M21)	pIC50 (HaCaT)
6.22	6.22	COc1cc([C@@H]2c3cc4c(cc3[C@@H](N=[N+]=[N-])[C@H]3COC(=O)[C@H]23)OCO4)cc(OC)c1O	6.22	6.30
< 4.00	< 4.00	COc1cc([C@@H]2c3cc4c(cc3[C@@H](n3cc(CNC(=O)[C@@H]5O[C@H](OC)[C@H](N)[C@@H](O)[C@@H]5O)nn3)[C@H]3COC(=O)[C@H]23)OCO4)cc(OC)c1O	< 4.00	< 4.00
5.05	5.70	COc1cc([C@@H]2c3cc4c(cc3[C@@H](O[C@@H]3O[C@@H]5CO[C@@H](C)O[C@H]5[C@H](O)[C@H]3O)[C@H]3COC(=O)[C@H]23)OCO4)cc(OC)c1O [ETOPOSIDE]	6.70	5.22
< 4.00	< 4.00	COc1cc([C@@H]2c3cc4c(cc3[C@@H](n3cc(CNC(=O)[C@@H]5O[C@H](OC)[C@H](NC(C)=O)[C@@H](O)[C@@H]5O)nn3)[C@H]3COC(=O)[C@H]23)OCO4)cc(OC)c1O	< 4.00	< 4.00
< 4.00	< 4.00	COc1cc([C@@H]2c3cc4c(cc3[C@@H](n3cc(CNC(=O)[C@@H]5O[C@H](OC)[C@H](O)[C@@H](O)[C@@H]5O)nn3)[C@H]3COC(=O)[C@H]23)OCO4)cc(OC)c1O	< 4.00	< 4.00
< 6.00	< 6.00	COc1cc([C@@H]2c3cc4c(cc3[C@@H](n3cc(CNC(=O)[C@H]5O[C@H](OC)[C@H](NC(=O)OC(C)(C)C)[C@@H](O)[C@@H]5O)nn3)[C@H]3COC(=O)[C@H]23)OCO4)cc(OC)c1O	< 6.00	< 6.00

SMILES	pIC50 (HT-29)	pIC50 (HT-1080)	pIC50 (M21)	pIC50 (HaCaT)
COc1cc([C@@H]2c3cc4c(cc3[C@@H](O)[C@H]3COC(=O)[C@H]23)OCO4)cc(OC)c1O [4'-DEMETHYLEPIPODOPHYLLOTOXIN]	6.82	6.96	6.77	6.80
COc1ccc(/C=C\c2cc(OC)c(OC)c(OC)c2)cc1O [COMBRETASTATIN A4]	< 6.00	8.59	8.72	8.47

Source: ChEMBL document CHEMBL5032537, “Synthetic development of sugar amino acid oligomers towards novel podophyllotoxin analogues” (Bioorg Med Chem, 2021)
